Biological target: T1, proTNF-α convertase enzyme (TACE) (Homo sapiens, UniProt P78536)
T1 construct: a partially purified, isolated enzyme assay, the enzyme being obtained from the membranes of THP-1; endogenous in cells; host or cells: THP-1 cell membranes, partially purified
Test: Isolated enzyme assay, proTNF-α convertase (TACE), partially purified enzyme from membranes of THP-1, fluorescent peptide substrate
Format: biochemical
Settings: 26° C. for 4 hours, read-out: concentration causing 50% inhibition of TACE
Description: Recombinant human proMMP13 may be expressed and purified as described by Knauper et al. [V. Knauper et al., (1996) The Biochemical Journal 271:1544-1550 (1996)]. […] Activity is determined by measuring the fluorescence at λex 328 nm and λem 393 nm. Percent inhibition is calculated as follows: % Inhibition is equal to the [Fluorescenceplus inhibitor-Fluorescencebackground] divided by the [Fluorescenceminus inhibitor-Fluorescencebackground].
The ability of the compounds to inhibit proTNF-α convertase enzyme (TACE) may be assessed using a partially purified, isolated enzyme assay, the enzyme being obtained from the membranes of THP-1 as described by K. M. Mohler et al., (1994) Nature 370:218-220. The purified enzyme activity and inhibition thereof is determined by incubating the partially purified enzyme in the presence or absence of test compounds using the substrate 4′,5′-Dimethoxy-fluoresceinyl Ser.Pro.Leu.Ala.Gln.Ala.Val.Arg.Ser.Ser.Ser.Arg.Cys(4-(3-succinimid-1-yl)-fluorescein)-NH2 in assay buffer (50 mM Tris HCl, pH 7.4 containing 0.1% (w/v) Triton X-100 and 2 mM CaCl2), at 26° C. for 4 hours. The amount of inhibition is determined as for MMP13 except λex 485 nm and λem 538 nm were used. […]

T1 sequence (P78536 215-824): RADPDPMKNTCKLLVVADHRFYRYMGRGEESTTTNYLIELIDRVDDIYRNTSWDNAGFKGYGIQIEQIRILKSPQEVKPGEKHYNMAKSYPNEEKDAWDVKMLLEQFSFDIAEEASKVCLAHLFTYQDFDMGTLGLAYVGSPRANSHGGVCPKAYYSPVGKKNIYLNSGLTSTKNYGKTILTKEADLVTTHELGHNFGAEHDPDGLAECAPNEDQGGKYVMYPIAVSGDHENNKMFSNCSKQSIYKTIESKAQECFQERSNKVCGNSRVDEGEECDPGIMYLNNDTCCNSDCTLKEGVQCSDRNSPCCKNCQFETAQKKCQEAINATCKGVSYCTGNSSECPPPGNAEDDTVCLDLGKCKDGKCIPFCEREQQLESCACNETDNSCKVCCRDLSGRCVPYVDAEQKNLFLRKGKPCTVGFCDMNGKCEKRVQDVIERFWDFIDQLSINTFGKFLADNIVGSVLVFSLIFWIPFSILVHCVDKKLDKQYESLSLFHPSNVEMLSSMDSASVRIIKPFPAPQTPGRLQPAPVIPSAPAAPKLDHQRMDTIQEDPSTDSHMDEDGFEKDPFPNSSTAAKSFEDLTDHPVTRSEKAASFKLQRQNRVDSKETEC

IC50: 0.63 µM
SMILES: Cc1cc(COC2CCN(S(=O)(=O)CCC3NC(=O)NC3=O)CC2)c2ccccc2n1 (stereo not shown) [Example 3, 5-[2-({4-[(2-Methylquinolin-4-yl)methoxy]piperidin-1-yl}sulphonyl)ethyl]imidazolidine-2,4-dione]

Source: patent US20060019994A1, “I-sulphonlyl piperidine derivatives” (priority 2002, published 2006)
